# PubChem BioAssay (NCI)
#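 Test compounds were applied to cells in 96-well plates for 48 hours at 5 doses. GI50 = concentration required for 50% inhibition of growth. The concentration for full growth arrest is given as TGI.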
# Legend:
# Experiment in all cases: NCI-60 cell line screen, 48 h
# EKVX NSCLC = test system: EKVX NSCLC
# SN12C renal = test system: SN12C renal
# SF-295 CNS = test system: SF-295 CNS
# SNB-75 CNS = test system: SNB-75 CNS
# HS 578T breast = test system: HS 578T breast
# U251 CNS = test system: U251 CNS
# T-47D breast = test system: T-47D breast
# SK-OV-3 ovarian = test system: SK-OV-3 ovarian
# SNB-19 CNS = test system: SNB-19 CNS
# SR leukemia = test system: SR leukemia
# SW-620 colon = test system: SW-620 colon
# HL-60(TB) leukemia = test system: HL-60(TB) leukemia
# MDA-MB-435 = test system: MDA-MB-435
# A549 NSCLC = test system: A549 NSCLC
# KM12 colon = test system: KM12 colon
# ACHN renal = test system: ACHN renal
# PC-3 prostate = test system: PC-3 prostate
# A498 renal = test system: A498 renal
# HCT-116 colon = test system: HCT-116 colon
# MOLT-4 leukemia = test system: MOLT-4 leukemia
# CCRF-CEM leukemia = test system: CCRF-CEM leukemia
# SF-539 CNS = test system: SF-539 CNS
# NCI-H226 lung = test system: NCI-H226 lung
# M14 melanoma = test system: M14 melanoma
# IGROV1 ovarian = test system: IGROV1 ovarian
# HOP-62 NSCLC = test system: HOP-62 NSCLC
# 786-0 renal = test system: 786-0 renal
# MDA-MB-231 breast = test system: MDA-MB-231 breast
# HT29 colon = test system: HT29 colon
# HCC-2998 colon = test system: HCC-2998 colon
# NCI-H460 lung = test system: NCI-H460 lung
# NCI-H522 lung = test system: NCI-H522 lung
# COLO 205 colon = test system: COLO 205 colon
# DU-145 prostate = test system: DU-145 prostate
# K-562 leukemia = test system: K-562 leukemia
# HCT-15 colon = test system: HCT-15 colon
# OVCAR-5 ovarian = test system: OVCAR-5 ovarian
# TK-10 renal = test system: TK-10 renal
# NCI-H23 lung = test system: NCI-H23 lung
# SK-MEL-2 melanoma = test system: SK-MEL-2 melanoma
# OVCAR-3 ovarian = test system: OVCAR-3 ovarian
# HOP-92 NSCLC = test system: HOP-92 NSCLC
# SK-MEL-5 melanoma = test system: SK-MEL-5 melanoma
# OVCAR-4 ovarian = test system: OVCAR-4 ovarian
# MCF7 breast = test system: MCF7 breast
# SK-MEL-28 melanoma = test system: SK-MEL-28 melanoma
# RPMI-8226 leukemia = test system: RPMI-8226 leukemia
# NCI/ADR-RES ovarian = test system: NCI/ADR-RES ovarian
# MALME-3M melanoma = test system: MALME-3M melanoma
# UACC-62 melanoma = test system: UACC-62 melanoma
# CAKI-1 renal = test system: CAKI-1 renal
# UO-31 renal = test system: UO-31 renal
# LOX IMVI melanoma = test system: LOX IMVI melanoma
# SF-268 CNS = test system: SF-268 CNS
compound,measurement,setting,value
COc1ccc(-n2cc(-c3ccc(OC)c(OC)c3)[nH]c2=S)cc1Cl,GI50,EKVX NSCLC,41.5 µM
same,TGI,EKVX NSCLC,> 100 µM
same,GI50,SN12C renal,> 100 µM
same,TGI,SN12C renal,> 100 µM
same,GI50,SF-295 CNS,41 µM
same,TGI,SF-295 CNS,> 100 µM
same,GI50,SNB-75 CNS,4.75 µM
same,TGI,SNB-75 CNS,21 µM
same,GI50,HS 578T breast,38.9 µM
same,TGI,HS 578T breast,> 100 µM
same,GI50,U251 CNS,41.1 µM
same,TGI,U251 CNS,> 100 µM
same,GI50,T-47D breast,> 100 µM
same,TGI,T-47D breast,> 100 µM
same,GI50,SK-OV-3 ovarian,> 100 µM
same,TGI,SK-OV-3 ovarian,> 100 µM
same,GI50,SNB-19 CNS,> 100 µM
same,TGI,SNB-19 CNS,> 100 µM
same,GI50,SR leukemia,> 100 µM
same,TGI,SR leukemia,> 100 µM
same,GI50,SW-620 colon,> 100 µM
same,TGI,SW-620 colon,> 100 µM
same,GI50,HL-60(TB) leukemia,> 100 µM
same,TGI,HL-60(TB) leukemia,> 100 µM
same,GI50,MDA-MB-435,> 100 µM
same,TGI,MDA-MB-435,> 100 µM
same,GI50,A549 NSCLC,> 100 µM
same,TGI,A549 NSCLC,> 100 µM
same,GI50,KM12 colon,> 100 µM
same,TGI,KM12 colon,> 100 µM
same,GI50,ACHN renal,> 100 µM
same,TGI,ACHN renal,> 100 µM
same,GI50,PC-3 prostate,> 100 µM
same,TGI,PC-3 prostate,> 100 µM
same,GI50,A498 renal,> 100 µM
same,TGI,A498 renal,> 100 µM
same,GI50,HCT-116 colon,> 100 µM
same,TGI,HCT-116 colon,> 100 µM
same,GI50,MOLT-4 leukemia,77.4 µM
same,TGI,MOLT-4 leukemia,> 100 µM
same,GI50,CCRF-CEM leukemia,> 100 µM
same,TGI,CCRF-CEM leukemia,> 100 µM
same,GI50,SF-539 CNS,39.4 µM
same,TGI,SF-539 CNS,> 100 µM
same,GI50,NCI-H226 lung,> 100 µM
same,TGI,NCI-H226 lung,> 100 µM
same,GI50,M14 melanoma,> 100 µM
same,TGI,M14 melanoma,> 100 µM
same,GI50,IGROV1 ovarian,> 100 µM
same,TGI,IGROV1 ovarian,> 100 µM
same,GI50,HOP-62 NSCLC,30.2 µM
same,TGI,HOP-62 NSCLC,> 100 µM
same,GI50,786-0 renal,52.3 µM
same,TGI,786-0 renal,> 100 µM
same,GI50,MDA-MB-231 breast,61.4 µM
same,TGI,MDA-MB-231 breast,> 100 µM
same,GI50,HT29 colon,> 100 µM
same,TGI,HT29 colon,> 100 µM
same,GI50,HCC-2998 colon,> 100 µM
same,TGI,HCC-2998 colon,> 100 µM
same,GI50,NCI-H460 lung,> 100 µM
same,TGI,NCI-H460 lung,> 100 µM
same,GI50,NCI-H522 lung,> 100 µM
same,TGI,NCI-H522 lung,> 100 µM
same,GI50,COLO 205 colon,> 100 µM
same,TGI,COLO 205 colon,> 100 µM
same,GI50,DU-145 prostate,> 100 µM
same,TGI,DU-145 prostate,> 100 µM
same,GI50,K-562 leukemia,> 100 µM
same,TGI,K-562 leukemia,> 100 µM
same,GI50,HCT-15 colon,> 100 µM
same,TGI,HCT-15 colon,> 100 µM
same,GI50,OVCAR-5 ovarian,> 100 µM
same,TGI,OVCAR-5 ovarian,> 100 µM
same,GI50,TK-10 renal,> 100 µM
same,TGI,TK-10 renal,> 100 µM
same,GI50,NCI-H23 lung,> 100 µM
same,TGI,NCI-H23 lung,> 100 µM
same,GI50,SK-MEL-2 melanoma,> 100 µM
same,TGI,SK-MEL-2 melanoma,> 100 µM
same,GI50,OVCAR-3 ovarian,> 100 µM
same,TGI,OVCAR-3 ovarian,> 100 µM
same,GI50,HOP-92 NSCLC,37.3 µM
same,TGI,HOP-92 NSCLC,> 100 µM
same,GI50,SK-MEL-5 melanoma,> 100 µM
same,TGI,SK-MEL-5 melanoma,> 100 µM
same,GI50,OVCAR-4 ovarian,> 100 µM
same,TGI,OVCAR-4 ovarian,> 100 µM
same,GI50,MCF7 breast,> 100 µM
same,TGI,MCF7 breast,> 100 µM
same,GI50,SK-MEL-28 melanoma,> 100 µM
same,TGI,SK-MEL-28 melanoma,> 100 µM
same,GI50,RPMI-8226 leukemia,> 100 µM
same,TGI,RPMI-8226 leukemia,> 100 µM
same,GI50,NCI/ADR-RES ovarian,> 100 µM
same,TGI,NCI/ADR-RES ovarian,> 100 µM
same,GI50,MALME-3M melanoma,> 100 µM
same,TGI,MALME-3M melanoma,> 100 µM
same,GI50,UACC-62 melanoma,> 100 µM
same,TGI,UACC-62 melanoma,> 100 µM
same,GI50,CAKI-1 renal,> 100 µM
same,TGI,CAKI-1 renal,> 100 µM
same,GI50,UO-31 renal,> 100 µM
same,TGI,UO-31 renal,> 100 µM
same,GI50,LOX IMVI melanoma,> 100 µM
same,TGI,LOX IMVI melanoma,> 100 µM
same,GI50,SF-268 CNS,58.7 µM
same,TGI,SF-268 CNS,> 100 µM
